viability, T/C and IC50 data for six compounds are collected here from PubChem BioAssay AID2060341 (Molecular Pharmacology Branch, DTP, NCI, 2025).

Values joined by “and” are separate entries in the source; they are usually repeats but may differ in a detail not shown here. Identical values can stand only once.

For the test, the system named is 327498-153-R-J2-PDC multicell spheroid viability. Kind of test: Anticancer human tumor 327498-153-R-J2-PDC patient-derived uterine carcinosarcoma cell line growth inhibition [IpAb]. As to conditions: for viability, T/C: stronger effect = lower value. The procedure, abridged: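 Combinations with ipatasertib or abemaciclib were tested on tumour spheroids holding HUVEC (25%) and MSC (15%) alongside 60% malignant cells. Top concentration was at or near clinical Cmax (10 microM if undefined), descending in half-log steps.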

Where [1] appears, read: curve of first compound, second compound 0.1 µM.
[2] abbreviates: curve of first compound, second compound 0.316 µM.
[3] abbreviates: curve of first compound, second compound 1 µM.
The mark [4] stands for this setting: curve of first compound, second compound 3.16 µM.
[5] abbreviates: curve of first compound, second compound 10 µM.
Where [6] appears, read: second compound 0.1 µM, first compound 0.0316 µM.
Where [7] appears, read: second compound 0.1 µM, first compound 0.1 µM.
Where [8] appears, read: second compound 0.1 µM, first compound 0.316 µM.
Setting [9] is: second compound 0.1 µM, first compound 1 µM.
The mark [10] stands for this setting: second compound 0.1 µM, first compound 3.16 µM.
Setting [11] is: second compound 0.1 µM, first compound 10 µM.
[12] abbreviates: second compound 0.316 µM, first compound 0.0316 µM.
Setting [13] is: second compound 0.316 µM, first compound 0.1 µM.
Setting [14] is: second compound 0.316 µM, first compound 0.316 µM.
[15] abbreviates: second compound 0.316 µM, first compound 1 µM.
The mark [16] stands for this setting: second compound 0.316 µM, first compound 3.16 µM.
Setting [17] is: second compound 0.316 µM, first compound 10 µM.
Where [18] appears, read: second compound 1 µM, first compound 0.0316 µM.
The mark [19] stands for this setting: second compound 1 µM, first compound 0.1 µM.
The mark [20] stands for this setting: second compound 1 µM, first compound 0.316 µM.
[21] abbreviates: second compound 1 µM, first compound 1 µM.
[22] abbreviates: second compound 1 µM, first compound 3.16 µM.
The mark [23] stands for this setting: second compound 1 µM, first compound 10 µM.
[24] abbreviates: second compound 3.16 µM, first compound 0.0316 µM.
Where [25] appears, read: second compound 3.16 µM, first compound 0.1 µM.
Setting [26] is: second compound 3.16 µM, first compound 0.316 µM.
The mark [27] stands for this setting: second compound 3.16 µM, first compound 1 µM.
The mark [28] stands for this setting: second compound 3.16 µM, first compound 3.16 µM.
[29] abbreviates: second compound 3.16 µM, first compound 10 µM.
Where [30] appears, read: second compound 10 µM, first compound 0.0316 µM.
Setting [31] is: second compound 10 µM, first compound 0.1 µM.
Where [32] appears, read: second compound 10 µM, first compound 0.316 µM.
[33] abbreviates: second compound 10 µM, first compound 1 µM.
Where [34] appears, read: second compound 10 µM, first compound 3.16 µM.
The mark [35] stands for this setting: second compound 10 µM, first compound 10 µM.
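Further: spheroids exposed to agents for 7 days.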
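Wherever viability, T/C is given: 100% = DMSO vehicle control viability.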

Take `CC(C)(C)c1cnc(CSc2cnc(NC(=O)C3CCNCC3)s2)o1`: the viability, T/C (compound 0.00949 µM) is 106% and 96.9%; the viability, T/C (compound 0.03 µM) was 108% and 105%; the viability, T/C (compound 0.0949 µM) was 95.8% and 93.2%; the viability, T/C (compound 0.3 µM) was 4.76% and 7%; the viability, T/C (compound 0.949 µM) was 0.89% and 1.1%; the viability, T/C (compound 3 µM) is 0.6% and 0.58%. In addition, the IC50 (curve of compound) came to 169 nM.

As for `CC(C)NCC(C(=O)N1CCN(c2ncnc3c2C(C)CC3O)CC1)c1ccc(Cl)cc1` (stereo not given), the viability, T/C reads like this: (compound 0.1 µM) 98.4% [middle of 13 runs]; (compound 0.316 µM) 80.2% [middle of 13 runs]; (compound 1 µM) 59.7% [middle of 13 runs]; (compound 3.16 µM) 48.1% [middle of 13 runs]; (compound 10 µM) 34.2% [middle of 13 runs]. For the setting “compound alone, run of 05/18/2021”, the concentration for half-maximal inhibition (IC50) is 2.46 µM [middle of 13 runs].

`CCCS(=O)(=O)Nc1ccc(F)c(C(=O)c2c[nH]c3ncc(-c4ccc(Cl)cc4)cc23)c1F` + CC(C)NCC(C(=O)N1CCN(c2ncnc3c2C(C)CC3O)CC1)c1ccc(Cl)cc1: the IC50 is, setting by setting: under setting [1], more than 10000 nM; under setting [2], more than 10000 nM; under setting [3], more than 10000 nM; under setting [4], 2360 nM; under setting [5], less than 31.6 nM. The viability, T/C under setting [6] is 94.3%; the viability, T/C under setting [7] was 101%; the viability, T/C under setting [8] is 96.7%; the viability, T/C under setting [9] was 101%; the viability, T/C under setting [10] is 101%; the viability, T/C under setting [11] was 86.7%. In addition, the viability, T/C is 72.2% under setting [12]; 74% under setting [13]; 80.6% under setting [14]; 81.1% under setting [15]; 85.3% under setting [16]; 63% under setting [17]. Moreover, the viability, T/C was 57.5% under setting [18]; 58.2% under setting [19]; 62.9% under setting [20]; 76.3% under setting [21]; 74.1% under setting [22]; 49% under setting [23]. Moreover, the viability, T/C under setting [24] is 49.6%; the viability, T/C under setting [25] was 50.3%; the viability, T/C under setting [26] was 52%; the viability, T/C under setting [27] is 56%; the viability, T/C under setting [28] was 54.4%; the viability, T/C under setting [29] is 42.1%. Moreover, the viability, T/C reads like this: under setting [30], 40.1%; under setting [31], 41.8%; under setting [32], 44.2%; under setting [33], 40.7%; under setting [34], 41.2%; under setting [35], 23.4%.

`C=CCn1c(=O)c2cnc(Nc3ccc(N4CCN(C)CC4)cc3)nc2n1-c1cccc(C(C)(C)O)n1` + CCN1CCN(Cc2ccc(Nc3ncc(F)c(-c4cc(F)c5nc(C)n(C(C)C)c5c4)n3)nc2)CC1: the IC50 reads like this: (curve of first compound, second compound 0.01 µM) 318 nM; (curve of first compound, second compound 0.0316 µM) 261 nM; under setting [1], 222 nM; under setting [2], 250 nM; under setting [3], 313 nM. The viability, T/C was 94.3% (second compound 0.01 µM, first compound 0.0316 µM); 88.5% (second compound 0.01 µM, first compound 0.1 µM); 50.6% (second compound 0.01 µM, first compound 0.316 µM); 5.09% (second compound 0.01 µM, first compound 1 µM); 4.75% (second compound 0.01 µM, first compound 3.16 µM); 5.85% (second compound 0.01 µM, first compound 10 µM). In addition, the viability, T/C was 84.4% (second compound 0.0316 µM, first compound 0.0316 µM); 76.9% (second compound 0.0316 µM, first compound 0.1 µM); 44.9% (second compound 0.0316 µM, first compound 0.316 µM); 6.81% (second compound 0.0316 µM, first compound 1 µM); 5.01% (second compound 0.0316 µM, first compound 3.16 µM); 6.96% (second compound 0.0316 µM, first compound 10 µM). In addition, the viability, T/C reads like this: under setting [6], 69.1%; under setting [7], 68.5%; under setting [8], 41.9%; under setting [9], 11.1%; under setting [10], 7.8%; under setting [11], 9.75%. Also, the viability, T/C was 66.2% under setting [12]; 61.1% under setting [13]; 47.3% under setting [14]; 24% under setting [15]; 14.6% under setting [16]; 14.8% under setting [17]. Also, the viability, T/C reads like this: under setting [18], 60.6%; under setting [19], 58.6%; under setting [20], 50.4%; under setting [21], 31.8%; under setting [22], 20.7%; under setting [23], 14.9%.

In the case of `C=CC(=O)N1CCN(c2nc(=O)n(-c3c(C)ccnc3C(C)C)c3nc(-c4c(O)cccc4F)c(F)cc23)C(C)C1` (stereo not given) + CC(C)NCC(C(=O)N1CCN(c2ncnc3c2C(C)CC3O)CC1)c1ccc(Cl)cc1, the IC50 reads like this: under setting [1], 219 nM; under setting [2], less than 31.6 nM; under setting [3], less than 31.6 nM; under setting [4], less than 31.6 nM; under setting [5], less than 31.6 nM. Further, the viability, T/C runs as follows: under setting [6], 66.7%; under setting [7], 55.7%; under setting [8], 45.3%; under setting [9], 46.4%; under setting [10], 43.8%; under setting [11], 40.8%. Also, the viability, T/C is, setting by setting: under setting [12], 46.2%; under setting [13], 36.6%; under setting [14], 36.8%; under setting [15], 30.3%; under setting [16], 30.5%; under setting [17], 29.1%. Also, the viability, T/C by setting is: under setting [18], 37.3%; under setting [19], 25.6%; under setting [20], 22.4%; under setting [21], 22.4%; under setting [22], 21.1%; under setting [23], 18.9%. Besides, the viability, T/C under setting [24] was 28.9%; the viability, T/C under setting [25] was 19.3%; the viability, T/C under setting [26] is 15.7%; the viability, T/C under setting [27] is 16.6%; the viability, T/C under setting [28] was 15%; the viability, T/C under setting [29] was 15.7%. Also, the viability, T/C is, setting by setting: under setting [30], 15.2%; under setting [31], 14.2%; under setting [32], 14.5%; under setting [33], 13.3%; under setting [34], 12.1%; under setting [35], 11.4%.

Take `COc1c(OCCCN2CCOCC2)ccc2c3n(c(=NC(=O)c4cnc(N)nc4)nc12)CCN3`: the viability, T/C reads like this: (compound 0.00316 µM) 98.8% and 95%; (compound 0.01 µM) 87.7% and 86%; (compound 0.0316 µM) 70.7% and 76.3%; (compound 0.1 µM) 46.7% and 45.2%; (compound 0.316 µM) 25.3% and 23.2%; (compound 1 µM) 9.52% and 11.8%. In addition, the IC50 (curve of compound) was 86.5 nM and 86.4 nM.
